From patent US20160213633A1, “METHOD OF INDUCING ANTI-GLATIRAMER ACETATE ANTIBODY RESPONSE” (Teva Pharmaceutical Industries, Ltd., priority 2015, published 2016)
Where two headings read alike, the source gives them in different places.

Tests used:
[1] = test system: anti-GA specific IgG antibodies; settings: for average anti-GA IgG response (Screening RA %): GA treatment group, 40 mg sc three times a week, 1/500 dilution
Protocol: The screening results of the 1/500 dilution are presented as RA %.
Analysis was performed using ELISA.
Each plate should include the following samples: • System suitability Test (SST)—wells coated with purified human IgG. • SST Blank—wells coated with the blocking buffer only (w/o hIgG and human serum sample). […] To be subtracted from the NHS & PHS controls and from the human tested serum samples. • Sample 1-Sample 13—different tested serum samples. Each sample applied in two dilutions ( 1/500 and 1/1000)
All tested human serum samples of different time points from the same individual should be tested (in triplicates), if possible, in the same plate to allow comparison.
Prepare a 1.0 ug/ml dilution of hIgG coating antibody and coat the plate at 100 ul/well.
For washing, empty plate and tap out residual liquid, fill each well with 300 ul washing buffer and then invert plate to empty, tap out residual liquid onto paper towel.
For blocking, add 300 ul/well of blocking buffer to each well, seal the plate and incubate at room temperature for 1 hour, and wash the plates three times.
For sample loading, add 100 ul diluted test samples and/or control sample and/or sample buffer to each well. Seal the plate and incubate for 2 hours at room temperature, empty plate, tap out residual liquid and wash three times.
For detection antibody, prepare 1:4000 dilution of the biotinylated anti-hIgG detection antibody by diluting 2.5 ul biotinylated anti-hIgG antibody to 10 ml of blocking buffer. Prepare 10 ml biotinylated anti-human IgG detection antibody solution per plate and add 100 ul of the prepared detection antibodies to each well. Seal the plate and incubate for 1 hour at room temperature. Then empty plate, tap out residual liquid and wash five times.
For streptavidin conjugated horseradish peroxidase (HRP), prepare working dilution of the streptavidin conjugated HRP in blocking buffer. Then add 100 ul/well of the prepared streptavidin conjugated HRP solution, following shaking the plate for a few seconds. Then incubate the plate for 1 hour at room temperature in the dark, following washing five times.
For enzymatic reaction, TMB (3,3,5,5-tetramethylbenzidine peroxidase) is used. Mix equal volumes of TMB Peroxidase Substrate (Part 1) and Peroxidase Substrate Solution B in a clean glass container immediately prior to use. Dispense 100 ul of TMB solution into each well and incubate the plate for 15-30 minutes in the dark at 37° C. Stop the reaction with 100 ul stop solution per well (1N sulphuric acid) and shake the plate for a few seconds. Read the absorbance (ABS) of each well at 450 nm.
For blank subtraction, subtract the calculated average absorbance (ABS) of SST blank from average (AVG) ABS value of the SST. Subtract the calculated AVG ABS of blank from AVG ABS value of each test sample including PHS and NHS control samples. All data points that fall below 0.000 are set equal to 0.000.
To overcome plate-to-plate variability, the results are normalized by dividing the absorbance (ABS) of each test sample (including the controls) with that of the SST. This value is the Relative Absorbance (RA) ratio and is multiplied by 100 expressed in percent. These values are the reported response values of the test. The RA value is calculated according to the following equation: […]
The RA values of the normal human serum samples obtained from untreated individuals are used to calculate a cut-point value of the test. The cut-point value is used to distinguish between negative and positive human serum samples. In case that the calculated cut point value of the study is lower than the RA of the detection limit (2*Blank) of the study, the cut point is calculated as follows: […]
The results of the other dilution ( 1/1000) will be reported for monitoring, to allow semi quantitative comparison of the tested serum defined as positive.
All samples of each patient were tested on the same plate, whenever it was possible.

anti-GA IgG antibodies = test system: anti-GA IgG antibodies
Protocol: Sample positivity of each screen positive sample of each patient was confirmed in further testing by comparison to the confirmatory cut-point.
Unspiked and spiked samples were tested according to the method but only in 1/500 dilution.
The confirmatory cut-point factor is calculated to set the false positive rate at 1%. Reported value (RV) were the unspiked sample avg. ODA and the spiked sample avg. OD. RV were obtained from 50 naïve individuals, each measured 4 times over 2 days by 2 analysts.
Percent RA inhibition was calculated according to the following equation:
Percent inhibition=100×(1−(RA of spiked)/(RA of unspiked))

L-glutamic acid polymer with L-alanine, L-lysine and L-tyrosine, acetate (salt) [GA]
Sample Positivity ([1]; Baseline visit, RA % vs cut-point 1.4, one line per patient): Negative
Sample Positivity ([1]; Baseline, cut-point RA % of 1.4, individual patient): Negative
average anti-GA IgG response (Screening RA %) ([1]; Baseline): 0.4568 RA %
average anti-GA IgG response (Screening RA %) ([1]; Month 1): 34.75 RA %
average anti-GA IgG response (Screening RA %) ([1]; Month 3): 67.72 RA %
average anti-GA IgG response (Screening RA %) ([1]; Month 6): 39.69 RA %
average anti-GA IgG response (Screening RA %) ([1]; Month 9): 30.61 RA %
average anti-GA IgG response (Screening RA %) ([1]; Month 12): 28.94 RA %
average anti-GA IgG response (Screening RA %) ([1]; Month 18): 24.9 RA %
average anti-GA IgG response (Screening RA %) ([1]; Month 24): 23.36 RA %
Sample Positivity ([1]; Month 1, RA % vs cut-point 1.4, one line per patient): POSITIVE
Sample Positivity ([1]; Month 2 (so in the source), RA % vs cut-point 1.4, patient 537414): POSITIVE
Sample Positivity ([1]; Month 3, RA % vs cut-point 1.4, one line per patient): POSITIVE
Sample Positivity ([1]; Month 3, cut-point RA % of 1.4, individual patient): POSITIVE
Sample Positivity ([1]; Month 6, RA % vs cut-point 1.4, one line per patient): POSITIVE
Sample Positivity ([1]; Month 6, cut-point RA % of 1.4, individual patient): POSITIVE
Sample Positivity ([1]; Month 12, RA % vs cut-point 1.4, one line per patient): POSITIVE
antibody level versus baseline ([1]; about 12 months after the initial 40 mg/ml dose): higher than baseline
total anti-GA IgG levels ([1]; by month 6 of the treatment): decreased
rate of increase of antibody level ([1]; first month compared to after the first month to the third month): greater rate during the first month
non-baseline samples higher than the cut-point value (RA % of 1.4) ([1]; human, in vivo): 96.2%
antibody level after the peak versus baseline ([1]; month 24): did not reach the baseline level
Inhibition (%) (anti-GA IgG antibodies; Baseline visit; one line per patient): 68.2%
Inhibition (%) (anti-GA IgG antibodies; Baseline; confirmation test, spiking with GA; each line one patient): 65.5%
Inhibition (%) (anti-GA IgG antibodies; Month 1; confirmation test): 63.8%
Confirmed Positivity (Yes/No) (anti-GA IgG antibodies; Month 1; individual patient): YES
Inhibition (%) (anti-GA IgG antibodies; Month 1 visit, individual patient): 18.7%
Inhibition (%) (anti-GA IgG antibodies; Month 1 visit; individual patient): 63.2%
Confirmed Positivity (Yes/No) (anti-GA IgG antibodies; Month 3; individual patient): YES
Inhibition (%) (anti-GA IgG antibodies; Month 3 visit, individual patient): 47.0%
Inhibition (%) (anti-GA IgG antibodies; Month 6; confirmation test): 61.1%
Confirmed Positivity (Yes/No) (anti-GA IgG antibodies; Month 6; individual patient): YES
Confirmed Positivity (Yes/No) (anti-GA IgG antibodies; Month 6 visit, individual patient): YES
Inhibition (%) (anti-GA IgG antibodies; Month 9; confirmation test): 56.8%
Confirmed Positivity (Yes/No) (anti-GA IgG antibodies; Month 9; individual patient): YES
Confirmed Positivity (Yes/No) (anti-GA IgG antibodies; Month 9 visit, individual patient): YES
Inhibition (%) (anti-GA IgG antibodies; Month 12; confirmation test): 58.5%
Confirmed Positivity (Yes/No) (anti-GA IgG antibodies; Month 12; individual patient): YES
Confirmed Positivity (Yes/No) (anti-GA IgG antibodies; Month 12 visit, individual patient): YES
Inhibition (%) (anti-GA IgG antibodies; Month 18; confirmation test): 60.2%
Confirmed Positivity (Yes/No) (anti-GA IgG antibodies; Month 18; individual patient): YES
Confirmed Positivity (Yes/No) (anti-GA IgG antibodies; Month 18 visit, individual patient): YES
Inhibition (%) (anti-GA IgG antibodies; Month 24; confirmation test): 66.8%
Inhibition (%) (anti-GA IgG antibodies; Month 24; confirmation test; individual patient): 66.7%
Confirmed Positivity (Yes/No) (anti-GA IgG antibodies; Month 24; individual patient): YES
Confirmed Positivity (Yes/No) (anti-GA IgG antibodies; Month 24 visit, individual patient): YES
Inhibition (%) (anti-GA IgG antibodies; confirmation test, individual patient, Month 1): 63.3%
Inhibition (%) (anti-GA IgG antibodies; confirmation test, individual patient, Month 18): 59.5%
Inhibition (%) (anti-GA IgG antibodies; confirmation test, individual patient, Month 24): 58.2%
presence of anti-GA IgG Abs in tested patients (anti-GA IgG antibodies; every tested patient (262 patients)): confirmed positive
positivity of non-baseline samples verified in the confirmatory test (anti-GA IgG antibodies; screen positive non-baseline samples; confirmatory cut-point […]): 99.9%
